Test system: bovine cardiac myofibrils
Assay: Myofibril assay: PK/LDH-coupled steady-state ATPase activity of skinned bovine cardiac myofibrils
Format: biochemical
Details: Ca2+ activating to 75% of maximal rate
In short: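 Steady-state ATPase of detergent-skinned bovine left-ventricular myofibrils (1 mg/mL), PK/LDH-coupled NADH read at 340 nm, in PIPES/MgCl2 buffer pH 6.8 with 50 μM ATP, 0.6 mM EGTA and CaCl2 set for 50% or 75% activation. Inhibition of activity measured.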

Row | Structure (SMILES) | CDMF75 IC15
1 | CCNC(=O)N1CCC2(C1)C(=O)N(C(C)C)CC(=O)N2Cc1ccc(C(F)(F)F)cc1 (centres unmarked) [Compound 116, N-ethyl-9-isopropyl-7,10-dioxo-6-(4-(trifluoromethyl)benzyl)-2,6,9-triazaspiro[4.5] decane-2-carboxamide] | 7.2 µM
2 | CC(C)NC(=O)N1CCC2(C1)C(=O)N(C(C)C)CC(=O)N2Cc1ccc(C(F)(F)F)cc1 (centres unmarked) [Compound 117, N,9-diisopropyl-7,10-dioxo-6-(4-(trifluoromethyl)benzyl)-2,6,9-triazaspiro[4.5]decane-2-carboxamide] | 16.6 µM
3 | CC(C)N1CC(=O)N(Cc2ccc(C(F)(F)F)cc2)C2(CCN(C(=O)NC3CC3)C2)C1=O (centres unmarked) [Compound 118, N-cyclopropyl-9-isopropyl-7,10-dioxo-6-(4-(trifluoromethyl)benzyl)-2,6,9-triazaspiro[4.5]decane-2-carboxamide] | 14.0 µM
4 | CC(C)N1CC(=O)N(C(C)c2ccc(C(F)(F)F)cc2)C2(CN(c3ccccn3)C2)C1=O (centres unmarked) [Compound 138, 8-isopropyl-2-(pyridin-2-yl)-5-(1-(4-(trifluoromethyl)-phenyl)ethyl)-2,5,8-triazaspiro[3.5]nonane-6,9-dione] | 7.0 µM
5 | CNC(=O)N1CC2(C1)C(=O)N(C(C)C)CC(=O)N2C(C)c1ccc(C(F)(F)F)cc1 (centres unmarked) [Compound 139, 8-isopropyl-N-methyl-6,9-dioxo-5-(1-(4-(trifluoromethyl)phenyl)-ethyl)-2,5,8-triazaspiro-[3.5]nonane-2-carboxamide] | 14.8 µM
6 | CNC(=O)N1CC2(C1)C(=O)N(c1ccc(OC)cc1)CC(=O)N2Cc1ccc(C(F)(F)F)cc1 [Compound 145, 8-(4-methoxyphenyl)-N-methyl-6,9-dioxo-5-(4-(trifluoromethyl)benzyl)-2,5,8-triazaspiro[3.5]-nonane-2-carboxamide] | 3.8 µM
7 | CNC(=O)N1CC2(C1)C(=O)N(c1ccc(C#N)cc1)CC(=O)N2Cc1ccc(C(F)(F)F)cc1 [Compound 146, 8-(4-cyanophenyl)-N-methyl-6,9-dioxo-5-(4-(trifluoromethyl)benzyl)-2,5,8-triazaspiro[3.5]-nonane-2-carboxamide] | 1.2 µM
8 | CNC(=O)N1CC2(C1)C(=O)N(c1ccc(C#N)nc1)CC(=O)N2Cc1ccc(C(F)(F)F)cc1 [Compound 147, 8-(6-cyanopyridin-3-yl)-N-methyl-6,9-dioxo-5-(4-(trifluoromethyl)benzyl)-2,5,8-triazaspiro[3.5]-nonane-2-carboxamide] | 8.1 µM
9 | CNC(=O)N1CC2(C1)C(=O)N(c1ccc(C(=O)OC)cc1)CC(=O)N2Cc1ccc(C(F)(F)F)cc1 [Compound 148, methyl 4-(2-(methylcarbamoyl)-6,9-dioxo-5-(4-(trifluoro-methyl)benzyl)-2,5,8-triazaspiro[3.5]nonan-8-yl)benzoate] | 2.3 µM
10 | CNC(=O)N1CC2(C1)C(=O)N(c1ccc(F)cc1)CC(=O)N2Cc1ccc(C(F)(F)F)cc1 [Compound 149, 8-(4-fluorophenyl)-N-methyl-6,9-dioxo-5-(4-(trifluoromethyl)benzyl)-2,5,8-triazaspiro[3.5]-nonane-2-carboxamide] | 8.9 µM
11 | CNC(=O)N1CC2(C1)C(=O)N(c1ccc(C(F)(F)F)cc1)CC(=O)N2Cc1ccc(C(F)(F)F)cc1 [Compound 151, N-methyl-6,9-dioxo-5-(4-(trifluoromethyl)benzyl)-8-(4-(trifluoromethyl)phenyl)-2,5,8-triazaspiro[3.5]nonane-2-carboxamide] | 12.2 µM
12 | CNC(=O)N1CC2(C1)C(=O)N(c1ccc(F)c(F)c1)CC(=O)N2Cc1ccc(C(F)(F)F)cc1 [Compound 152, 8-(3,4-difluorophenyl)-N-methyl-6,9-dioxo-5-(4-(trifluoromethyl)benzyl)-2,5,8-triazaspiro[3.5]nonane-2-carboxamide] | 2.8 µM
13 | CNC(=O)N1CC2(C1)C(=O)N(c1ccc(C)cc1)CC(=O)N2Cc1ccc(C(F)(F)F)cc1 [Compound 153, N-methyl-6,9-dioxo-8-(p-tolyl)-5-(4-(trifluoromethyl)benzyl)-2,5,8-triazaspiro[3.5]-nonane-2-carboxamide] | 6.4 µM
14 | CNC(=O)N1CC2(C1)C(=O)N(c1ccc(OC)nc1)CC(=O)N2Cc1ccc(C(F)(F)F)cc1 [Compound 154, 8-(6-methoxypyridin-3-yl)-N-methyl-6,9-dioxo-5-(4-(trifluoromethyl)benzyl)-2,5,8-triazaspiro[3.5]-nonane-2-carboxamide] | 19.8 µM
15 | CNC(=O)N1CC2(C1)C(=O)N(c1ccc(Cl)c(F)c1)CC(=O)N2Cc1ccc(C(F)(F)F)cc1 [Compound 155, 8-(4-chloro-3-fluorophenyl)-N-methyl-6,9-dioxo-5-(4-(trifluoromethyl)benzyl)-2,5,8-triazaspiro[3.5]-nonane-2-carboxamide] | 0.6 µM
16 | CNC(=O)N1CC2(C1)C(=O)N(c1ccc(Cl)cn1)CC(=O)N2Cc1ccc(C(F)(F)F)cc1 [Compound 156, 8-(5-chloropyridin-2-yl)-N-methyl-6,9-dioxo-5-(4-(trifluoromethyl)benzyl)-2,5,8-triazaspiro[3.5]-nonane-2-carboxamide] | 7.1 µM
17 | CNC(=O)N1CC2(C1)C(=O)N(c1ccc(C(F)F)cc1)CC(=O)N2Cc1ccc(C(F)(F)F)cc1 [Compound 157, 8-(4-(difluoromethyl)-phenyl)-N-methyl-6,9-dioxo-5(4-(trifluoromethyl)-benzyl)-2,5,8-triazaspiro-[3.5]nonane-2-carboxamide] | 5.5 µM
18 | CNC(=O)N1CC2(C1)C(=O)N(c1ccc(C3CC3)cc1)CC(=O)N2Cc1ccc(C(F)(F)F)cc1 [Compound 158, 8-(4-cyclopropylphenyl)-N-methyl-6,9-dioxo-5-(4-(trifluoromethyl)benzyl)-2,5,8-triazaspiro[3.5]-nonane-2-carboxamide] | 9.7 µM
19 | CNC(=O)N1CC2(C1)C(=O)N(c1ccc(OC(F)F)cc1)CC(=O)N2Cc1ccc(C(F)(F)F)cc1 [Compound 159, 8-(4-(difluoromethoxy)-phenyl)-N-methyl-6,9-dioxo-5-(4-(trifluoro-methyl)benzyl)-2,5,8-triazaspiro[3.5]nonane-2-carboxamide] | 3.2 µM
20 | CNC(=O)N1CC2(C1)C(=O)N(c1ccc(OC(F)(F)F)cc1)CC(=O)N2Cc1ccc(C(F)(F)F)cc1 [Compound 160, N-methyl-6,9-dioxo-8-(4-(trifluoromethoxy)-phenyl)-5-(4-(trifluoromethyl)benzyl)-2,5,8-triazaspiro[3.5]-nonane-2-carboxamide] | 7.1 µM

Next, values leading:

Row | CDMF75 IC15 | Structure (SMILES)
21 | 10.2 µM | CC(C)N1CC(=O)N(Cc2ccc(C(F)(F)F)cc2)C2(CCN(C(=O)Nc3ccc(F)cc3)C2)C1=O (centres unmarked) [Compound 115, N-(4-fluorophenyl)-9-isopropyl-7,10-dioxo-6-(4-(trifluoromethyl)benzyl)-2,6,9-triazaspiro[4.5]decane-2-carboxamide]
22 | 10.8 µM | CCNC(=O)N1CCC2(C1)C(=O)N(C(C)C)CC(=O)N2Cc1ccc(Cl)cc1 (centres unmarked) [Compound 119, 6-(4-chlorobenzyl)-N-ethyl-9-isopropyl-7,10-dioxo-2,6,9-triazaspiro[4.5]-decane-2-carboxamide]
23 | 18.3 µM | CC(C)N1CC(=O)N(Cc2ccc(Cl)cc2)C2(CCN(C(N)=O)C2)C1=O (centres unmarked) [Compound 120, 6-(4-chlorobenzyl)-9-isopropyl-7,10-dioxo-2,6,9-triazaspiro[4.5]decane-2-carboxamide]
24 | 9.9 µM | CNC(=O)N1CCC2(C1)C(=O)N(C(C)C)CC(=O)N2Cc1ccc(Cl)cc1 (centres unmarked) [Compound 121, 6-(4-chlorobenzyl)-9-isopropyl-N-methyl-7,10-dioxo-2,6,9-triazaspiro[4.5]-decane-2-carboxamide]
25 | 20.5 µM | CC(C)N1CC(=O)N(Cc2ccc(Cl)cc2)C2(CCN(C(=O)NC3CC3)C2)C1=O (centres unmarked) [Compound 122, 6-(4-chlorobenzyl)-N-cyclopropyl-9-isopropyl-7,10-dioxo-2,6,9-triazaspiro[4.5]decane-2-carboxamide]
26 | 11.2 µM | CC(C)N1CC(=O)N(Cc2ccc(Cl)cc2)C2(CCN(C(=O)Nc3ccccc3)C2)C1=O (centres unmarked) [Compound 123, 6-(4-chlorobenzyl)-9-isopropyl-7,10-dioxo-N-phenyl-2,6,9-triazaspiro-[4.5]decane-2-carboxamide]
27 | 0.8 µM | CC(C)N1CC(=O)N(Cc2ccc(Cl)cc2)C2(CCN(c3ccccc3)C2)C1=O (centres unmarked) [Compound 127, 6-(4-chlorobenzyl)-9-isopropyl-2-phenyl-2,6,9-triazaspiro[4.5]decane-7,10-dione]
28 | 0.8 µM | CC(C)N1CC(=O)N(Cc2ccc(Cl)cc2)C2(CCN(c3ccccn3)C2)C1=O (centres unmarked) [Compound 128, 6-(4-chlorobenzyl)-9-isopropyl-2-(pyridin-2-yl)-2,6,9-triazaspiro[4.5]decane-7,10-dione]
29 | 4.6 µM | Cc1cc(N2CCC3(C2)C(=O)N(C(C)C)CC(=O)N3Cc2ccc(Cl)cc2)ccn1 (centres unmarked) [Compound 129, 6-(4-chlorobenzyl)-9-isopropyl-2-(2-methyl-pyridin-4-yl)-2,6,9-triazaspiro-[4.5]decane-7,10-dione]
30 | 4.4 µM | CC(C)N1CC(=O)N(C(C)c2ccc(C(F)(F)F)cc2)C2(CN(c3ccccc3)C2)C1=O (centres unmarked) [Compound 140, 8-isopropyl-2-phenyl-5-(1-(4-(trifluoromethyl)phenyl)-ethyl)-2,5,8-triazaspiro-[3.5]nonane-6,9-dione]
31 | 10.7 µM | CC(C)N1CC(=O)N([C@H](C)c2ccc(C(F)(F)F)cc2)C2(CN(c3ccccc3)C2)C1=O [Compound 141, (R)-8-isopropyl-2-phenyl-5-(1-(4-(trifluoromethyl)-phenyl)ethyl)-2,5,8-triazaspiro[3.5]nonane-6,9-dione]
32 | 0.8 µM | CC(C)N1CC(=O)N([C@@H](C)c2ccc(C(F)(F)F)cc2)C2(CN(c3ccccc3)C2)C1=O [Compound 142, (S)-8-isopropyl-2-phenyl-5-(1-(4-(trifluoromethyl)phenyl)ethyl)-2,5,8-triazaspiro[3.5]nonane-6,9-dione]
